Test results taken from publication PMC11877530, “Heterologous Expression and Characterization of Estercin A, a Class II Lanthipeptide Derived from Clostridium estertheticum CF016, with Antimicrobial Activity against Clinically Relevant Pathogens” (Journal of Natural Products, 2025).
≈ marks a conversion by molar mass, not a printed value.

Experiments:
[1] = tested on: Clostridium perfringens CECT376; conditions: Reinforced Clostridium Medium, Coy Anaerobic Chamber, 18 h, 37 °C, three biological replicates
Gram-positive strains = format: cell-based
[2] = tested on: Lactococcus lactis MG1363; conditions: 18 h
L. lactis MG1363 [3] = assay: Fluorescence microscopy assay (SYTO-9/PI) for membrane pore formation; format: cell-based, Lactococcus lactis; conditions: L. lactis MG1363, peptide at 2-fold MIC, SYTO-9 and 5 μM PI, 15 min room temperature
Protocol: An overnight culture of L. lactis MG1363 was added to the GM17 broth to a final concentration of 1% (v/v) and grown to an OD600 of 0.8. The culture was centrifuged at 6,000 rpm for 5 min and washed three times in the MHB medium. […] Simultaneously, 5 μM PI and SYTO 9 were added to the samples. After incubation at room temperature for 15 min, the samples were centrifuged, and the supernatant was removed. And the cells were washed three times with MHB. After that, the harvest cells were loaded on 1.5% agarose pads and analyzed by a DeltaVision Elite microscope (Applied Precision).

[4] = tested on: Enterococcus faecalis LMG16216 (VRE); conditions: LMG16216, 18 h
[5] = tested on: Listeria monocytogenes LMG10470; conditions: LMG10470, 18 h
[6] = tested on: Enterococcus faecium LMG16003 (VRE); conditions: LMG16003, 18 h
[7] = Thermal stability (remaining antimicrobial activity); format: physicochemical; conditions: 4 h at 95 °C; read-out antimicrobial activity on L. lactis MG1363 agar; three biological replicates
[8] = tested on: Clostridium tetani CECT4629; conditions: Reinforced Clostridium Medium, Coy Anaerobic Chamber, 18 h, 37 °C, three biological replicates
[9] = tested on: Staphylococcus aureus LMG10147; conditions: LMG10147, 18 h
[10] = Spot-on-lawn-based lipid II binding (competition) assay; parameters: species or system Lactococcus lactis; conditions: spot-on-lawn on L. lactis MG1363 GM17 agar; estercin A 8 μg spotted adjacent to lipid II (300 μM, 3 μL); nisin positive, daptomycin negative control
Protocol: The binding of the peptides to pure lipid II ([…]) was tested by the spot-on-the- lawn assay. Here, nisin and daptomycin were used for comparison.[51]

[11] = pH stability (remaining antimicrobial activity); conditions: pH 2, 4, 7 or 10 adjusted with HCl or NaOH; read-out antimicrobial activity on L. lactis MG1363 agar; three biological replicates
[12] = tested on: Bacillus cereus ATCC14579; conditions: ATCC14579, 18 h
[13] = tested on: Clostridium botulinum CECT551; conditions: Reinforced Clostridium Medium, Coy Anaerobic Chamber, 18 h, 37 °C, three biological replicates
L. lactis MG1363 [14] = assay: Time killing assay; format: cell-based, Lactococcus lactis; conditions: L. lactis MG1363, 5 × 10^5 CFU/mL, 10-fold the MIC, GM17, 30 °C, CFU counts, triplicate
Protocol: Time-killing assays were conducted according to the previously described protocol.[57] Briefly, an overnight culture of L. lactis MG1363 was diluted 50-fold in GM17 and incubated at 30 °C. The cells were grown for about 3 h to an OD600 of 0.5, and then the cell concentration was adjusted to 5 × 10^5 CFU/mL. […] Untreated cells were used as a control. At predetermined time points, 50 μL was taken from each sample, and undiluted and 10-fold serially diluted suspensions were plated on GM17 agar plates. After the overnight incubation at 30 °C, the colonies on the plates were counted and then calculated as the colony-forming units per milliliter. The experiment was carried out in triplicate.

[15] = tested on: Staphylococcus aureus LMG15975 (MRSA); conditions: LMG15975, 18 h
C. perfringens = conditions: reported value, ref not given; cited from earlier work

Compound: C=C1NC(=O)[C@H](C(C)C)NC(=O)C2CSC[C@@H](C(=O)N[C@@H](CCCCN)C(=O)O)NC(=O)[C@H](CSC(C)C3NC(=O)[C@H](Cc4ccccc4)NC(=O)C(NC(=O)[C@@H](NC(=O)[C@@H](NC(=O)[C@@H](NC(=O)CNC(=O)CNC(=O)CN)C(C)C)[C@@H](C)CC)[C@@H](C)O)C(C)SC[C@H](NC(=O)[C@H](CCC(=O)O)NC(=O)[C@H](Cc4c[nH]cn4)NC3=O)C(=O)N[C@@H](Cc3ccc(O)cc3)C(=O)N[C@@H](Cc3ccc(O)cc3)C(=O)N[C@@H](CC(N)=O)C(=O)N2)NC(=O)CNC(=O)CNC(=O)[C@H](Cc2c[nH]c3ccccc23)NC(=O)[C@H](CO)NC(=O)[C@H](C)NC(=O)[C@@H]2CCCN2C1=O (some centres unmarked) [estercin A]
- MIC [1]: 1 µg/mL (≈ 0.363 µM)
- Antimicrobial activity against selected Gram-positive strains (Gram-positive strains): broad spectrum of activity
- MIC [2]: 4 µg/mL (≈ 1.45 µM)
- Membrane pore-forming ability (L. lactis MG1363 [3]): cannot form pores on the membrane of target cells
- MIC [4]: 64 µg/mL (≈ 23.2 µM)
- MIC [5]: >64 µg/mL
- MIC [6]: 64 µg/mL (≈ 23.2 µM)
- Reduction of antimicrobial activity after 95 °C exposure [7]: less than 30%
- MIC [8]: 4 µg/mL (≈ 1.45 µM)
- MIC [9]: 16 µg/mL (≈ 5.81 µM)
- Lipid II binding [10]: binds to lipid II
- pH stability: activity retained after incubation [11]: retained most of their activity
- MIC [12]: 8 µg/mL (≈ 2.91 µM)
- MIC [13]: 32 µg/mL (≈ 11.6 µM)
- Rate of killing (L. lactis MG1363 [14]): slower rate of killing
- MIC [15]: 4 µg/mL (≈ 1.45 µM)

Compound: ruminococcin A
- MIC (C. perfringens): 75 µg/mL
